Reference: article PMC3466204 (PLoS ONE, 2012)
Several values for one entry are separate records, joined by “and”; a condition that tells them apart may be missing. Equal entries are not always repeated. Ends that are not written are not given here.

Assays:
L. lactis MG1363 [1] = settings: truncated nisin, ref [36]; cited from earlier work
Text: The increased efficacy resulted from a single mutation located at serine 29, within the C-terminal of nisin. The importance of Serine 29 for activity has previously been noted when Chan et al report ...

Lactococcus lactis HP = assay: Agarose-based assay of cell-free supernatants of S29X producing strains; settings: for Zone Diameter (mm): agarose (1%) GM17 assay, 10 µl cell-free supernatant of overnight producing culture in 4.6 mm wells, L. lactis HP, 30°C; for % difference (zone relative to wild type): agarose assay of supernatants against L. lactis HP, wild type serine = 100
Description: (§1) Agarose-based deferred antagonism assays were carried out as follows: GM17/LB (0.03%) underlay was prepared with 10 mM sodium phosphate buffer (SPB) at pH 7.4 to which was added agarose (1% w/v agarose), autoclaved and cooled to 50°C. Bacteria grown to mid-logarithmic phase were harvested by centrifugation and washed with 10 mM SPB at pH 7.4. Bacteria were then added to 15 mls cooled underlay medium to reach a concentration of 2×10^7 colony-forming units (CFU)/mL. The inoculated medium was rapidly transferred into sterile Petri plates, allowed to solidify and dried. Wells (4.6 mm in diameter) were then made in the seeded plates. 10 µl volumes of cell-free supernatant from overnight nisin derivative producing cultures or resuspended purified peptides were then added to the wells and the plates incubated at 30°C (L. lactis) or 37°C (Gram positive strains) or RT (Gram negative strains) for 3 hours. Polymyxin B (Sigma Aldrich) was used at a concentration of 20 µg/ml. The plates were then overlaid with 15 mls of autoclaved double strength GM17 (L. lactis) or LB (Gram negatives) agarose (1% w/v agarose) overlay medium precooled to 50°C. The plates were then incubated overnight at the relevant temperature.

L. lactis HP = assay: Broth MIC, Gram positive; assay type: cell-based; settings: broth microtitre, BSA pre-treated plates, 10^5 cfu ml^−1, 2-fold dilutions from 500 nM, 16 h, purified peptide, mean of triplicate assays
Description: (§2) Minimum inhibitory concentration determinations for Gram positive organisms were carried out in triplicate in microtitre plates (Sarstedt). 96 well microtitre plates were pre-treated with bovine serum albumin (BSA) prior to addition of the peptides. Briefly, to each well of the microtitre plate 200 µL of phosphate buffered saline (PBS) containing 1% (w/v) bovine serum albumin (PBS/BSA) was added and incubated at 37°C for 30 min. The wells were washed with 200 µL PBS and allowed to dry. Target strains were grown overnight in the appropriate conditions and medium, subcultured into fresh broth and allowed to grow to an OD600 of ∼0.5, diluted to a final concentration of 10^5 cfu ml^−1 in a volume of 0.2 ml. Wild type nisin and nisin mutant peptides were adjusted to a 10 µM (S. mitis, B. cereus), 7.5 µM (L. monocytogenes), 5 µM (hVISA) 2.5 µM (MRSA, E. durans), or 500 nM (L. lactis strains) starting concentration and 2-fold serial dilutions of each peptide were added to the target strain.

L. lactis MG1363 [2] = assay: Broth MIC, Gram positive; assay type: cell-based; settings: broth microtitre, BSA pre-treated plates, 10^5 cfu ml^−1, 2-fold dilutions from 500 nM, 16 h, purified peptide, mean of triplicate assays
Description: as §2

L. monocytogenes 10403S = assay: Broth MIC, Gram positive; assay type: cell-based; settings: broth microtitre, BSA pre-treated plates, 10^5 cfu ml^−1, 2-fold dilutions from 7.5 µM, 16 h 37°C, purified peptide, mean of triplicate assays
Description: as §2

L. monocytogenes LO28 = assay: Broth MIC, Gram positive; assay type: cell-based; settings: broth microtitre, BSA pre-treated plates, 10^5 cfu ml^−1, 2-fold dilutions from 7.5 µM, 16 h 37°C, purified peptide, mean of triplicate assays
Description: as §2

S. aureus RF122 = assay: Broth MIC, Gram positive; assay type: cell-based; settings: broth microtitre, BSA pre-treated plates, 10^5 cfu ml^−1, 2-fold dilutions, 16 h 37°C, purified peptide, mean of triplicate assays
Description: as §2

[3] = system: ST 528 (Methicillin resistant S. aureus); assay: Broth MIC, Gram positive; assay type: cell-based; settings: broth microtitre, BSA pre-treated plates, 10^5 cfu ml^−1, 2-fold dilutions from 2.5 µM, 16 h 37°C, purified peptide, mean of triplicate assays
Description: as §2

[4] = system: ST 530 (Methicillin resistant S. aureus); assay: Broth MIC, Gram positive; assay type: cell-based; settings: broth microtitre, BSA pre-treated plates, 10^5 cfu ml^−1, 2-fold dilutions from 2.5 µM, 16 h 37°C, purified peptide, mean of triplicate assays
Description: as §2

[5] = system: hVISA 32679 (heterogenous Vancomycin-intermediate S. aureus); assay: Broth MIC, Gram positive; assay type: cell-based; settings: broth microtitre, BSA pre-treated plates, 10^5 cfu ml^−1, 2-fold dilutions from 5 µM, 16 h 37°C, purified peptide, mean of triplicate assays
Description: as §2

S. mitis UCC5000 = assay: Broth MIC, Gram positive; assay type: cell-based, Streptococcus mitis; settings: broth microtitre, BSA pre-treated plates, 10^5 cfu ml^−1, 2-fold dilutions from 10 µM, 16 h 37°C, purified peptide, mean of triplicate assays
Description: as §2

B. cereus DPC 6088 = assay: Broth MIC, Gram positive; assay type: cell-based, Bacillus cereus; settings: broth microtitre, BSA pre-treated plates, 10^5 cfu ml^−1, 2-fold dilutions from 10 µM, 16 h 37°C, purified peptide, mean of triplicate assays
Description: as §2

B. cereus DPC 6089 = assay: Broth MIC, Gram positive; assay type: cell-based, Bacillus cereus; settings: broth microtitre, BSA pre-treated plates, 10^5 cfu ml^−1, 2-fold dilutions from 10 µM, 16 h 37°C, purified peptide, mean of triplicate assays
Description: as §2

E. durans 5133 = assay: Broth MIC, Gram positive; assay type: cell-based, Enterococcus durans; settings: broth microtitre, BSA pre-treated plates, 10^5 cfu ml^−1, 2-fold dilutions from 2.5 µM, 16 h 37°C, purified peptide, mean of triplicate assays
Description: as §2

C. sakazakii DPC 6440 [6] = assay: Agarose gel diffusion assay, purified peptide; assay type: cell-based, Cronobacter sakazakii; settings: purified peptide 60 µM; for Zone of inhibition, agarose gel diffusion: C. sakazakii DPC 6440, mean of triplicate assays
Description: as §1

E. coli 0157-H7 [7] = assay: Agarose gel diffusion assay, purified peptide; assay type: cell-based; settings: purified peptide 60 µM; for Zone of inhibition, agarose gel diffusion: E. coli 0157-H7, mean of triplicate assays
Description: as §1

[8] = system: Salmonella enterica serovar Typhimurium UK1; assay: Agarose gel diffusion assay, purified peptide; assay type: cell-based; settings: purified peptide 60 µM; for Zone of inhibition, agarose gel diffusion: Salmonella Typhimurium UK1, mean of triplicate assays
Description: as §1

C. sakazakii DPC 6440 [9] = assay: Broth MIC, Gram negative; assay type: cell-based, Cronobacter sakazakii; settings: cells washed in 10 mM SPB pH 7.4, 2×10^5 CFU/mL, 2 h RT with peptide, then double strength LB, RT overnight, mean of triplicate assays
Description: (§3) Minimum inhibitory concentration determinations for Gram negative strains were carried out in triplicate in 96 well microtitre plates. Briefly, bacteria (E. coli, C. sakazakii and Salmonella) grown to mid-logarithmic phase were harvested by centrifugation, washed with 10 mM SPB at pH 7.4, and diluted to 2×10^5 colony-forming units (CFU)/mL in SPB. Nisin and nisin derivative peptides were resuspended in sterile HPLC water and 50 µL aliquots were added to wells containing 50 µL of 2×10^5 CFU of bacteria. Plates were incubated at RT for two hours with agitation. Double strength Luria–Bertani (LB) broth (100 µL) was added and the plates were incubated at RT overnight, the MIC was taken as the lowest concentration at which growth was inhibited.

E. coli 0157-H7 [10] = assay: Broth MIC, Gram negative; assay type: cell-based; settings: cells washed in 10 mM SPB pH 7.4, 2×10^5 CFU/mL, 2 h RT with peptide, then double strength LB, RT overnight, mean of triplicate assays
Description: as §3

[11] = system: Salmonella enterica serovar Typhimurium UK1; assay: Broth MIC, Gram negative; assay type: cell-based; settings: cells washed in 10 mM SPB pH 7.4, 2×10^5 CFU/mL, 2 h RT with peptide, then double strength LB, RT overnight, mean of triplicate assays
Description: as §3

C. sakazakii DPC 6440 [12] = assay: Agarose gel diffusion assay, peptide alone or with polymyxin B nonapeptide (PMBN); assay type: cell-based, Cronobacter sakazakii; settings: for Total area of inhibitory zone, peptide alone: purified peptide 30 µM alone; for Total area of inhibitory zone, peptide + PMBN: purified peptide 30 µM in combination with polymyxin B nonapeptide (PMBN) 20 µg/ml
Description: as §1
Polymyxin B (PMB) is a cyclic lipodecapaptide produced by bacteria of the genus Paenibacillus that acts primarily on the Gram negative cell wall, leading to rapid permeability changes in the cytoplasmic membrane and ultimately cell death. […] To that end, C. sakazakii DPC 6440 cells were treated with purified nisin A, S29G and S29A peptides alone (30 µM) or in combination with PMBN at a concentration of 20 µg/ml and determined the antimicrobial activity by agarose gel diffusion assay (Fig. 5). […] When used in combination with PMBN, a substantial synergistic effect was clearly evident (Fig. 5) but in this instance no significant difference in efficacy was observed between nisin A or either of the derivatives S29A or S29G.

C. sakazakii DPC 6440 [13] = assay: Kill curve analysis; assay type: cell-based, Cronobacter sakazakii; settings: 33 mg/L purified peptide, 2×10^5 cfu ml^−1, 37°C for 1 hour
Description: (§4) Using purified peptide in each case, 10 mM sodium phosphate buffer washed C. sakazakii, E. coli and Salmonella strains were diluted to a final concentration of 2×10^5 cfu ml^−1 and were exposed to nisin A, S29G and S29A at a concentration of 33 mg/L. Following incubation at 37°C for 1 hour, bacterial growth was monitored through plate counts.

E. coli = assay: Kill curve analysis; assay type: cell-based; settings: 33 mg/L purified peptide, 2×10^5 cfu ml^−1, 37°C for 1 hour
Description: as §4

S. typhimurium UK-1 = assay: Kill curve analysis; assay type: cell-based, Salmonella enterica serovar Typhimurium; settings: 33 mg/L purified peptide, 2×10^5 cfu ml^−1, 37°C for 1 hour
Description: as §4

Row | Substance | Zone Diameter (mm) (Lactococcus lactis HP) | % difference (zone relative to wild type) (Lactococcus lactis HP) | MIC (L. lactis HP) | MIC (L. lactis MG1363 [2]) | MIC (L. monocytogenes 10403S) | MIC (L. monocytogenes LO28) | MIC (S. aureus RF122) | MIC [3] | MIC [4] | MIC [5] | MIC (S. mitis UCC5000) | MIC (B. cereus DPC 6088) | MIC (B. cereus DPC 6089) | MIC (E. durans 5133) | Zone of inhibition, agarose gel diffusion (C. sakazakii DPC 6440 [6]) [mm] | Zone of inhibition, agarose gel diffusion (E. coli 0157-H7 [7]) [mm] | Zone of inhibition, agarose gel diffusion [8] [mm] | MIC (C. sakazakii DPC 6440 [9]) | MIC (E. coli 0157-H7 [10]) | MIC [11] | further results
1 | nisin 1–28: truncated version of nisin, literature (ITSISLCTPGCKTGALMGCNMKTATCHC; ends and bridges not checked; cysteine pairing not given here; UniProt P13068 24-51, looked up, fragment) |  |  |  |  |  |  |  |  |  |  |  |  |  |  |  |  |  |  |  |  | fold reduced inhibitory activity relative to nisin (L. lactis MG1363 [1]): 100 fold
2 | nisin A (ITSISLCTPGCKTGALMGCNMKTATCHCSIHVSK; thioether (positions not given here); not fully specified (residues 2, 5, 33, bridges); also: lantibiotic, ring and dehydro modifications not given here; UniProt P13068 24-57, looked up) [wild type lantibiotic bacteriocin purified from L. lactis NZ9700; serine at position 29, reference compound] | 15.2±0.2 | 100% | 0.2 mg/L and 0.062 µM | 0.8 mg/L and 0.250 µM | 12.57 mg/L and 3.75 µM | 6.28 mg/L and 1.875 µM | 1.04 mg/L | 0.52 mg/L and 0.156 µM | 0.52 mg/L and 0.156 µM | 4.19 mg/L | 8.38 mg/L and 2.5 µM | 8.38 mg/L and 2.5 µM | 8.38 mg/L and 2.5 µM | 0.52 mg/L and 0.156 µM | 9.77±0.17 | 9.81±0.04 | 9.88±0.11 | 12.57 mg/L and 3.75 µM | 50.28 mg/L and 15 µM | > 100 mg/L and > 30 µM | MIC (S. aureus RF122; listed as NisinA): 0.312 µM; MIC ([5]; listed as NisinA): 1.25 µM; Total area of inhibitory zone, peptide alone (C. sakazakii DPC 6440 [12]): 40.0±2.3 mm^2; Total area of inhibitory zone, peptide + PMBN (C. sakazakii DPC 6440 [12]): 115.61±2.9 mm^2
3 | S29A: bioengineered nisin A derivative, serine 29 replaced by alanine (ITSISLCTPGCKTGALMGCNMKTATCHCAIHVSK; not fully specified (residues 2, 5, 33, bridges); cysteine pairing not given here; UniProt P13068 24-57, looked up, variant S29A) | 16.6±0.3 | 109 (0.004) % | 0.1 mg/L and 0.031 µM | 0.2 mg/L and 0.062 µM | 6.28 mg/L and 1.875 µM | 3.14 mg/L and 0.937 µM | 0.52 mg/L and 0.156 µM | 0.26 mg/L and 0.078 µM | 0.26 mg/L and 0.078 µM | 2 mg/L and 0.625 µM | 4.19 mg/L | 2 mg/L | 4.19 mg/L and 1.25 µM | 0.13 mg/L and 0.039 µM | 11.65±0.12 | 11.50±0.05 | 11.29±0.23 | 6.28 mg/L and 1.875 µM | 25.14 mg/L and 7.5 µM | 50.28 mg/L and 15 µM | Zone as % wt (C. sakazakii DPC 6440 [6]; C. sakazakii DPC 6440, relative to nisin A): 119 % wt; Zone as % wt (E. coli 0157-H7 [7]; E. coli 0157-H7, relative to nisin A): 117 % wt; Zone as % wt ([8]; Salmonella Typhimurium UK1, relative to nisin A): 114 % wt; Total area of inhibitory zone, peptide alone (C. sakazakii DPC 6440 [12]): 49.0±1.24 mm^2; Total area of inhibitory zone, peptide + PMBN (C. sakazakii DPC 6440 [12]): 121.5±6.3 mm^2; Killing compared with nisin A (plate counts) (C. sakazakii DPC 6440 [13]): greater activity than wildtype nisin A; Killing compared with nisin A (plate counts) (E. coli): greater activity than wildtype nisin A; Killing compared with nisin A (plate counts) (S. typhimurium UK-1): greater activity than wildtype nisin A
